Measured values as given in US7514428B2, “Pesticidal 1-aryl-3-amidoxime-pyrazole derivatives” (Merial Limited, priority 2002, dated 2009).

Test system: Ctenocephalides felis, Diabrotica undecimpunctata, Nephotettix cincticeps, Rhipicephalus sanguineus
Test: Parasiticidal and pesticidal tests, Methods A to E taken together (active in one or more of the tests, test not specified)
Type: in vivo
Conditions: active = at least 90% control (A, 5 ppm or less), 90% (B, 10 ppm), 98% mortality (C, 100 ppm), 70% (D, 1000 ppm) or 70% (E, 100 ppm); test not given per compound
Procedure: The following representative test procedures, using compounds of the invention, were conducted to determine the parasiticidal and pesticidal activity of compounds of the invention.
Method A: Screening Method to Test Systemicity of Compounds Against Ctenocephalides Felis (Cat Flea)
A test container was filled with 10 adults of Ctenocephalides felis. A glass cylinder was closed on one end with parafilm and placed on top of the test container. The test compound solution was then pipetted into bovine blood and added to the glass cylinder. The treated Ctenocephalides felis were held in this artificial dog test (blood 37° C., 40-60% relative humidity; Ctenocephalides felis 20-22° C., 40-60% relative humidity) and assessment performed at 24 and 48 hours after application.
Active compounds gave at least 90% control of Ctenocephalides felis at a test concentration of 5 ppm or less.
Method B: Diabrotica Undecimpunctata (Southern Corn Rootworm) Screen
Two days before application, seeds of maize were soaked in water under warm conditions to elicit fast germination. One day before application, eggs of Diabrotica undecimpunctata were transferred to one half of a Japanese filter paper placed in a plastic petri dish. Afterwards, a sprouted maize seed was placed on a moistened pad beside the filter paper. Three drops of 200 microlitres of test compound solution were carefully pipetted onto the egg. The remainder of the solution was placed on the maize and then the Petri dish was closed. The treated eggs in the Petri dishes were held in a climate chamber for 6 days. The compound efficacy (percentage of dead eggs and/or larvae in comparison to untreated control) was assessed 6 days after application using a binocular microscope. […]
The leaves of 12 rice plants having a stem length of 8 cm were dipped for 5 seconds into an aqueous solution of the formulated test compound. […] After 6 days storage, the percentage mortality of leafhopper larvae was determined. […]
Solutions of the test compounds were dropped onto filter paper, dried and the filter paper placed into test tubes and infested with 10 adults of Ctenocephalides felis. The treated Ctenocephalides felis were held in a climate chamber (26° C., 80% RH) and the percentage efficacy assessed 24 hours and 48 hours after application in comparison with the untreated control. […]
Solutions of the test compounds were dropped onto filter paper, dried and the filter paper placed into test tubes and infested with 20-30 larvae (L1) of Rhipicephalus sanguineus and the tubes closed with a clip. The treated Rhipicephalus sanguineus were held in a climate chamber (25° C., 90% RH) and the percentage efficacy assessed 24 hours after application in comparison with the untreated control. […]

SMILES	active in one or more of the above tests
CNc1c(S(=O)(=O)C(F)(F)F)c(C(N)=NOCc2ccccc2)nn1-c1c(Cl)cc(C(F)(F)F)cc1Cl [Compound 1-49, 1-(2,6-Dichloro-4-trifluoromethylphenyl)-3-(N-benzyloxy-2-amidino)-5-methylamino-4-trifluoromethylsulfonylpyrazole]	active
CNc1c([S+]([O-])C(F)(F)F)c(C(=N)N(C)OCc2c(Cl)cccc2Cl)nn1-c1c(Cl)cc(C(F)(F)F)cc1Cl (stereo not shown) [Compound 4-82, 1-(2,6-Dichloro-4-trifluoromethylphenyl)-3-[N-(2,6-dichlorobenzyloxy)-N-methyl-2-amidino]-5-methylamino-4-trifluoromethylsulfinylpyrazole]	active
CNc1c([S+]([O-])C(F)(F)F)c(C(=N)N(C)OCc2ccc(C(F)(F)F)cc2)nn1-c1c(Cl)cc(C(F)(F)F)cc1Cl (stereo not shown) [Compound 4-93, 1-(2,6-Dichloro-4-trifluoromethylphenyl)-3-[N-methyl-N-(4-trifluoromethylbenzyloxy)-2-amidino]-5-methylamino-4-trifluoromethylsulfinylpyrazole]	active
CNc1c(S(=O)(=O)C(F)(F)F)c(C(=N)N(C)OCc2ccc(C(F)(F)F)cc2)nn1-c1c(Cl)cc(C(F)(F)F)cc1Cl [Compound 4-128, 1-(2,6-Dichloro-4-trifluoromethylphenyl)-3-[N-methyl-N-(4-trifluoromethylbenzyloxy)-2-amidino]-5-methylamino-4-trifluoromethylsulfonylpyrazole]	active
